These results are taken from US9815851B2, “Pyrrolo carboxamides as modulators of orphan nuclear receptor RAR-related orphan receptor-gamma (RORγ, NR1F3) activity and for the treatment of chronic inflammatory and autoimmune diseases” (PHENEX PHARMACEUTICALS AG, priority 2011, dated 2017).

The structures appear in SMILES notation. Like-named read-outs stand apart in the source and are kept apart here. Where only a bound is given, the exact number is not on record here.

Assay [1] deals with T1, RORγ ligand binding domain (LBD) (Homo sapiens, UniProt P51449).
T1 construct: made in house; host or cells: E. coli BL-21 (BL3), vector pDEST15
T1 sequence (P51449 269-508 limits assumed): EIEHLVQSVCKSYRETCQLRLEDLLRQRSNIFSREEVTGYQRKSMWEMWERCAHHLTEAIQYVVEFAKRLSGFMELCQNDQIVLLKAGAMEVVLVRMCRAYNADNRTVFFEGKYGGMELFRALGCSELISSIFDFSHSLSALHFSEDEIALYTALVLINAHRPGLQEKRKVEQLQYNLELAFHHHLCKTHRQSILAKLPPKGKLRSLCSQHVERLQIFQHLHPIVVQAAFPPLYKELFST
Put plainly: TR-FRET Activity Assay (ligand sensing, RORγ-LBD / coactivator peptide interaction, LANCE). It counts as biochemical. Background: TR-FRET usually uses a lanthanide donor and a delayed reading to cut background.

Another assay deals with T2, RORγ (UniProt P51449).
T2 sequence (P51449 1-518): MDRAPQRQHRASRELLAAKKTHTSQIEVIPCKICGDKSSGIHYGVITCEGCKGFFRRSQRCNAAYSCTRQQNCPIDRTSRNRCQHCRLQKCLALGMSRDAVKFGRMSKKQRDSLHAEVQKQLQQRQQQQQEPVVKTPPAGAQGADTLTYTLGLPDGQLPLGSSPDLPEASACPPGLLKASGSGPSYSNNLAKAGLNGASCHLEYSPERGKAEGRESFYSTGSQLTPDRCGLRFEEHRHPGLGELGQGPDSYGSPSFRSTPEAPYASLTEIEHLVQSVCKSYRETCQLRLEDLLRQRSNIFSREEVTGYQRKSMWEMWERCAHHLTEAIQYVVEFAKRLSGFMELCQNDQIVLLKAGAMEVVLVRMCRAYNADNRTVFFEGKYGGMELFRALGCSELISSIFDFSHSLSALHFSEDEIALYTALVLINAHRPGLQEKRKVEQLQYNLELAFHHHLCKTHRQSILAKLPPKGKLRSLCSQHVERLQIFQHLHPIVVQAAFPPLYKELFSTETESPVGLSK
The assay is described as follows: RORγ Gal4 Reporter Gene Assay in 293T cells (firefly and renilla luciferase). It counts as cell-based, human. For orientation: Reporter assays use an easily measured gene product as a stand-in for the process of interest.

Where [2] appears, read: first value of the cell FRET/FF/REN, TR-FRET activity assay, read-out: pIC50 (FRET) (converted).
The mark [3] stands for this setting: second value of the cell, Gal4 reporter gene assay in 293T cells, firefly luciferase.
Setting [4] is: third value of the cell, Gal4 reporter gene assay in 293T cells, renilla normalised luciferase.

For `Cc1c(C(=O)NC2CCOCC2)cc(-c2ccc(S(=O)(=O)NC(C)(C)C)c3sccc23)n1CC1CCCCC1` [17/183], the IC50 in assay [1] (setting [2]) was 200 nM. Moreover, on RORγ (setting [3]), the “pIC50 (FF)” value stood at 7.9. Also, the “pIC50 (REN)” value against RORγ (setting [4]) was found to be 8.1.
For `Cc1c(C(=O)NC[C@H]2CC[C@H](C(=O)O)CC2)cc(-c2cc(C(C)(C)C)c3c(c2)C2(CCO3)CC2)n1CC1CCCCC1` [17/59], the IC50 in assay [1] was 2000 nM. Further, on RORγ, the “pIC50 (FF)” value is given as 5.7/6.6/6.6 and the “pIC50 (REN)” value is listed as 5.7/6.6/6.6.
Consider `COC(C)(C)CNC(=O)c1cc(-c2cc(C(C)(C)C)cc(C3(C)CC3)c2)n(CC2CCCCC2)c1C` [17/68], for which the IC50 in assay [1] was 158 nM. For the same compound, at RORγ, the “pIC50 (FF)” value is listed as 6.8/7.4/7.5 and the “pIC50 (REN)” value is listed as 6.8/7.4/7.5.
Regarding `Cc1c(C(=O)N(C)CC2(O)CCOCC2)cc(-c2cc(C(C)(C)C)c3c(c2)C2(CCO3)CC2)n1CC1CCCCC1` [17/39], the IC50 in assay [1] was 398 nM. Besides, at RORγ, the “pIC50 (FF)” value was 6.4/6.9/6.8 and the “pIC50 (REN)” value was 6.4/6.9/6.8.
In turn, `Cc1c(C(=O)NCc2cocn2)cc(-c2cc(C(C)(C)C)c3c(c2)C2(CCO3)CC2)n1CC1CCCCC1` [17/18] had an IC50 in assay [1] of 1000 nM. On RORγ, the “pIC50 (FF)” value was 6.0/6.1/6.1 and the “pIC50 (REN)” value is reported as 6.0/6.1/6.1.
As for `Cc1c(C(=O)NCCC(C)(C)C(=O)O)cc(-c2ccc(S(=O)(=O)NC(C)(C)C)c(C(F)F)c2)n1CC1CCCCC1` [17/130], the IC50 in assay [1] (setting [2]) is 251 nM. Moreover, the “pIC50 (FF)” value against RORγ (setting [3]) is recorded as 7.5. The “pIC50 (REN)” value at RORγ (setting [4]) turned out to be 7.6.
For `Cc1c(C(=O)N[C@H]2C[C@H](C(=O)O)C2)cc(-c2cc(C(C)(C)C)cc(C(C)(C)C)c2OC(F)F)n1CC1CCCCC1` [17/193] the same measures were 2510 nM, 6.9 and 7.0.
For `Cc1c(C(=O)NCCCS(C)(=O)=O)cc(-c2cc(C(C)(C)C)c3c(c2)C2(CCO3)CC2)n1CC1CCCCC1` [17/80] the same measures were 501 nM, 6.9 and 7.0.
Take `Cc1c(C(=O)NCCN2CCN(C)CC2)cc(-c2cc(C(C)(C)C)cc(C3(C)CC3)c2)n1CC1CCCCC1` [17/346]: in assay [1], the IC50 is 5010 nM. For the same compound, on RORγ, the “pIC50 (FF)” value is 5.3/<4.7/<4.7 and the “pIC50 (REN)” value is given as 5.3/<4.7/<4.7.
For the compound `Cc1c(C(=O)NC2COC2)cc(-c2cc(C(=O)N3CCCCC3)c3ccccn23)n1CC1CCCCC1` [Example 10/1], the IC50 in assay [1] (setting [2]) was 15800 nM. For the same compound, at RORγ (setting [3]), the “pIC50 (FF)” value came out at 6.7. The “pIC50 (REN)” value against RORγ (setting [4]) is 6.6.
For `Cc1c(C(=O)NCCc2nnn[nH]2)cc(-c2cc(C(C)(C)C)cc(C3(C)CC3)c2)n1CC1CCCCC1` [17/70] the same measures were 1260 nM, 7.9 and 7.9.
For `CC(C)(C)NS(=O)(=O)c1ccc(-c2cc(C(=O)NCCC(C)(C)C(=O)O)c(Cl)n2CC2CCCCC2)cc1C(F)(F)F` [Example 22, 4-(5-(4-(N-(tert-Butyl)sulfamoyl)-3-(trifluoromethyl)phenyl)-2-chloro-1-(cyclohexylmethyl)-1H-pyrrole-3-carboxamido)-2,2-dimethylbutanoic acid] the same measures were 398 nM, 7.5 and 7.6.
For `Cc1c(C(=O)NC2CCOCC2)cc(-c2ccc(-c3ccnn3C(C)C)c(C(C)(C)C)c2)n1CC1CCCCC1` [Example 26, 5-(3-(tert-Butyl)-4-(1-isopropyl-1H-pyrazol-5-yl)phenyl)-1-(cyclohexylmethyl)-2-methyl-N-(tetrahydro-2H-pyran-4-yl)-1H-pyrrole-3-carboxamide] the same measures were 200 nM, 7.5 and 7.6.
Turning to `Cc1c(C(=O)NC2CCOCC2)cc(-c2cc(C(C)(C)O)cc(C(F)(F)F)c2)n1CC1CCCCC1` [17/306], in assay [1] (setting [2]), the IC50 is 1580 nM. Also, the “pIC50 (FF)” value at RORγ (setting [3]) is listed as 6.8. In addition, at RORγ (setting [4]), the “pIC50 (REN)” value was determined as 6.9.
For `COC(=O)C(C)(C)CCNC(=O)c1cc(-c2cc(C(C)(C)C)cc(C3(C)CC3)c2)n(CC2CCCCC2)c1F` [20/4] the same measures were 200 nM, 6.9 and 6.9.
For `Cc1c(C(=O)NC2CCOCC2)cc(-c2cc(C(=O)NCC(F)(F)F)cc(C3(C)CC3)c2)n1CC1CCCCC1` [17/352] the same measures were 631 nM, 7.5 and 7.5.
For `Cc1c(S(=O)(=O)NC(C)(C)C)ccc(-c2cc(C(=O)NC3CCOCC3)c(C)n2CC2CCCCC2)c1C(F)(F)F` [17/287] the same measures were 631 nM, 7.7 and 7.7.
In turn, `Cc1c(C(=O)NC2CCOCC2)cc(-c2ccc(S(=O)(=O)NC(C)(C)C)c(C(F)F)c2)n1CC1CCCCC1` [17/115] showed an IC50 in assay [1] of 316 nM. At RORγ, the “pIC50 (FF)” value is reported as 6.5/7.9/8.0 and the “pIC50 (REN)” value is on record as 6.5/7.9/8.0.
Regarding `Cc1c(C(=O)N2CCC(C)(O)CC2)cc(-c2ccc(S(=O)(=O)NC(C)(C)C)c(C(C)(C)C)c2)n1CC1CCCCC1` [17/93], the IC50 in assay [1] (setting [2]) is 1000 nM. Besides, on RORγ (setting [3]), the “pIC50 (FF)” value is recorded as 6.8. Besides, the “pIC50 (REN)” value on RORγ (setting [4]) stood at 6.9.
Turning to `Cc1c(C(=O)NC2COC2)cc(-c2cn(S(=O)(=O)N3CCCCC3)c3ccccc23)n1CC1CCCCC1` [9/1], the IC50 in assay [1] (setting [2]) was 501 nM. Further, at RORγ (setting [3]), the “pIC50 (FF)” value is on record as 7.5. For the same compound, the “pIC50 (REN)” value against RORγ (setting [4]) is on record as 7.5.
Consider `Cc1c(C(=O)N[C@H]2C[C@H](C(=O)O)C2)cc(-c2ccc(S(=O)(=O)NC(C)(C)C)c3c2OCCO3)n1CC1CCCCC1` [17/279], for which, in assay [1] (setting [2]), the IC50 is 3160 nM. The “pIC50 (FF)” value at RORγ (setting [3]) is below 4.7. Moreover, the “pIC50 (REN)” value on RORγ (setting [4]) is recorded as below 4.7.
Turning to `Cc1c(C(=O)NCC2CCOCC2)cc(-c2cc(C(C)(C)C)cc(C3(C)CC3)c2)n1CC1CCCCC1` [17/63], the IC50 in assay [1] was 200 nM. Besides, at RORγ, the “pIC50 (FF)” value is recorded as 6.7/7.7/7.6 and the “pIC50 (REN)” value is 6.7/7.7/7.6.
`Cc1c(C(=O)NC2COC2)cc(-c2cc(C(=O)N(C)C(C)(C)C)cc(C(F)(F)F)c2)n1CC1CCCCC1` [15/1] showed an IC50 in assay [1] of 2000 nM. Further, at RORγ, the “pIC50 (FF)” value is given as 5.7/6.6/6.7 and the “pIC50 (REN)” value was 5.7/6.6/6.7.
As for `Cc1c(C(=O)NCCc2nn[nH]n2)cc(-c2ccc(S(=O)(=O)NC(C)(C)C)c(C(C)(C)C)c2)n1CC1CCCCC1` [17/334], the IC50 in assay [1] (setting [2]) is 1260 nM. Also, the “pIC50 (FF)” value at RORγ (setting [3]) was found to be 5.8. For the same compound, the “pIC50 (REN)” value on RORγ (setting [4]) worked out at 5.9.
For `Cc1c(C(N)=O)cc(-c2cc(C3CC3)cc(C(C)(C)C)c2)n1CC1CCCCC1` [Example 12, 5-(3-(tert-Butyl)-5-cyclopropylphenyl)-1-(cyclohexylmethyl)-2-methyl-1H-pyrrole-3-carboxamide] the same measures were 1000 nM, 6.1 and 6.2.
For `Cc1c(C(=O)NCCc2noc(=O)[nH]2)cc(-c2cc(C(C)(C)C)cc(C3(C)CC3)c2)n1CC1CCCCC1` [17/178] the same measures were 794 nM, 7.9 and 7.9.
`Cc1c(C(=O)NCC2(C(=O)NCCCO)CCOCC2)cc(-c2cc(C(C)(C)C)c3c(c2)C2(CCO3)CC2)n1CC1CCCCC1` [17/34]: in assay [1] (setting [2]), the IC50 was 1580 nM. In addition, the “pIC50 (FF)” value at RORγ (setting [3]) is recorded as 7.0. At RORγ (setting [4]), the “pIC50 (REN)” value turned out to be 6.9.
